In patent US10196398B2, “Pesticidally active tetracyclic derivatives with sulfur containing substituents” (Syngenta Participations AG, priority 2014, dated 2019):
Like-named read-outs stand apart in the source and are kept apart here.

Key:
Assay type in all cases: in vivo
Euschistus heros = assay: Example B2: Euschistus heros (neotropical brown stink bug), sprayed soybean leaves; conditions: 120 h, read-out: effect in at least one of the two categories (mortality or growth inhibition)
Protocol: Example B2: Euschistus heros(Neotropical Brown Stink Bug)
Soybean leaves on agar in 24-well microtiter plates were sprayed with aqueous test solutions prepared from 10′000 ppm DMSO stock solutions. After drying the leaves were infested with N2 nymphs. The samples were assessed for mortality and growth inhibition in comparison to untreated samples 5 days after infestation.

Spodoptera littoralis [1] = assay: whole plant or invertebrate; conditions: foliar, 72 h, read-out: control (mortality, anti-feeding effect, or growth inhibition)
Protocol: (§1) Example B6: Spodoptera littoralis (Egyptian Cotton Leaf Worm)
Cotton leaf discs were placed onto agar in 24-well microtiter plates and sprayed with aqueous test solutions prepared from 10′000 ppm DMSO stock solutions. After drying the leaf discs were infested with five L1 larvae. The samples were assessed for mortality, anti-feeding effect, and growth inhibition in comparison to untreated samples 3 days after infestation. Control of Spodoptera littoralis by a test sample is given when at least one of the categories mortality, anti-feedant effect, and growth inhibition is higher than the untreated sample.

Myzus persicae [2] = assay: Example B3: Myzus persicae (green peach aphid), feeding/contact activity; conditions: 144 h
Protocol: Example B3: Myzus persicae (Green Peach Aphid):Feeding/Contact Activity
(§2) Sunflower leaf discs were placed onto agar in a 24-well microtiter plate and sprayed with aqueous test solutions prepared from 10′000 ppm DMSO stock solutions. After drying, the leaf discs were infested with an aphid population of mixed ages. The samples were assessed for mortality 6 days after infestation.

Diabrotica balteata = assay: Example B1: Diabrotica balteata (corn root worm), sprayed maize sprouts; conditions: 96 h, read-out: effect in at least one of the two categories (mortality or growth inhibition)
Protocol: Example B1: Diabrotica balteata (Corn Root Worm)
Maize sprouts placed onto an agar layer in 24-well microtiter plates were treated with aqueous test solutions prepared from 10′000 ppm DMSO stock solutions by spraying. After drying, the plates were infested with L2 larvae (6 to 10 per well). The samples were assessed for mortality and growth inhibition in comparison to untreated samples 4 days after infestation.

Plutella xylostella = assay: Example B5: Plutella xylostella (diamond back moth), artificial diet; conditions: 120 h, read-out: effect in at least one of the two categories (mortality or growth inhibition)
Protocol: Example B5: Plutella xylostella (Diamond Back Moth)
24-well microtiter plates with artificial diet were treated with aqueous test solutions prepared from 10′000 ppm DMSO stock solutions by pipetting. After drying, the plates were infested with L2 larvae (10 to 15 per well). The samples were assessed for mortality and growth inhibition in comparison to untreated samples 5 days after infestation.

Spodoptera littoralis [3] = assay: whole plant or invertebrate; conditions: in Gossypium barbadense, 144 h, read-out: effect in at least one of the three categories (mortality, anti-feeding, or growth inhibition)
Excerpt: as §1
Test compounds were applied by pipette from 10′000 ppm DMSO stock solutions into 24-well plates and mixed with agar. Lettuce seeds were placed onto the agar and the multi well plate was closed by another plate which contained also agar. After 7 days the compound was absorbed by the roots and the lettuce grew into the lid plate. The lettuce leaves were then cut off into the lid plate. Spodoptera eggs were pipetted through a plastic stencil onto a humid gel blotting paper and the lid plate was closed with it. The samples were assessed for mortality, anti-feedant effect and growth inhibition in comparison to untreated samples 6 days after infestation.

Thrips tabaci = assay: Example B8: Thrips tabaci (onion thrips), feeding/contact activity; conditions: 144 h, application rate of 200 ppm, population of mixed ages, 6 days after infestation
Protocol: Example B8: Thrips tabaci (Onion Thrips) Feeding/Contact Activity
as §2, with “on” for “onto”, “in” for “in a”, “plates” for “plate”, “drying” for “drying,”, “a thrips” for “an aphid”

Myzus persicae [4] = assay: Example B4: Myzus persicae (green peach aphid), systemic activity; conditions: 144 h, test rate of 24 ppm, roots of pea seedlings in test solution, 6 days
Protocol: Example B4: Myzus persicae (Green Peach Aphid). Systemic Activity
Roots of pea seedlings infested with an aphid population of mixed ages were placed directly into aqueous test solutions prepared from 10′000 DMSO stock solutions. The samples were assessed for mortality 6 days after placing seedlings into test solutions.

[5] = tested on: Frankliniella occidentalis; assay: Example B7: Frankliniella occidentalis (western flower thrips), feeding/contact activity; conditions: 168 h, application rate of 200 ppm, population of mixed ages, 7 days after infestation
Protocol: Example B7: Frankliniella occidentalis (Western Flower Thrips):Feeding/Contact Activity
Sunflower leaf discs were placed on agar in 24-well microtiter plates and sprayed with aqueous test solutions prepared from […] stock solutions. After drying the leaf discs were infested with a Frankliniella population of mixed ages. The samples were assessed for mortality 7 days after infestation.

CCS(=O)(=O)c1cc2ccccc2nc1-c1cn2cnc(C(F)(F)F)cc2n1 [Compound P1, 3-ethylsulfonyl-2-[7-(trifluoromethyl)imidazo[1,2-c]pyrimidin-2-yl]quinolone]
≥ 80%: percent control (mortality or growth inhibition) at 200 ppm (Euschistus heros) | percent control (mortality, anti-feedant effect or growth inhibition) at 200 ppm (Spodoptera littoralis [1]) | mortality at 200 ppm (Myzus persicae [2]) | percent control (mortality or growth inhibition) at 200 ppm (Diabrotica balteata) | percent control (mortality or growth inhibition) at 200 ppm (Plutella xylostella) | percent control (mortality, anti-feedant effect or growth inhibition) at 12.5 ppm (Spodoptera littoralis [3])

CCS(=O)(=O)c1cc2c(cc1-c1cn3cnc(C(F)(F)F)cc3n1)nc(C(F)(F)F)n2C [Compound P2, 2-[6-ethylsulfonyl-1-methyl-2-(trifluoromethyl)benzimidazol-5-yl]-7-(trifluoromethyl)imidazo[1,2-c]pyrimidine]
≥ 80%: percent effect (mortality or growth inhibition) at 200 ppm (Euschistus heros; application rate of 200 ppm, N2 nymphs, 5 days after infestation) | mortality at 200 ppm (Myzus persicae [2]; application rate of 200 ppm, aphid population of mixed ages, 6 days after infestation, read-out: mortality) | percent effect (mortality or growth inhibition) at 200 ppm (Diabrotica balteata; application rate of 200 ppm, L2 larvae, 4 days after infestation) | percent effect (mortality or growth inhibition) at 200 ppm (Plutella xylostella; application rate of 200 ppm, L2 larvae, 5 days after infestation) | mortality at 200 ppm (Thrips tabaci) | mortality at 24 ppm (Myzus persicae [4]) | mortality at 200 ppm [5]
